# Measured values taken from US20110251135A1, “INHIBITORS OF PERITONEAL SEEDING OF CANCER CELLS” (University of Utah Research Foundation, priority 2008, published 2011).
# Tests used:
# [1] = tested on: transiently suspended HT-29 cells; experiment: Apoptosis of transiently suspended cells during readhesion (annexin V assay); type: cell-based, human
# Procedure: HT-29 cells that were either transiently suspended with trypsin-EDTA or adherent for three days, were treated at time zero with DMSO or 10-100 μM BAY 11-7085. The percent of apoptotic cells was determined using the annexin V flow cytometry assay and graphed versus the dose of BAY 11-7085. FIG. 4B are photographs showing DLD-1, FIG. 4C are photographs showing HCT-116, and FIG. 4D are photographs showing HT-29 cells that were transiently suspended in trypsin-EDTA and allowed to readhere to glass coverslips for 1-24 hours. The cells were fixed and immunostained with an NF-κB p65 subunit monoclonal antibody.
# The transiently suspended cells were lysed and allowed to bind to DNA oligonucleotides, containing the NF-κB consensus binding site, that were immobilized to 96-well plates. NF-κB protein bound to the oligonucleotides was detected by an antibody to the p65 subunit that only recognized p65 that is bound to DNA. The positive control was HeLa cells that were stimulated with TNFα. A control was performed using excess free NF-κB oligonucleotides (Competitor). […] NF-κB binding activity was determined by the TransAM assay as in FIG. 5A. […] The data shown represent typical results of three separate experiments. […] An immunoblot for COX-2 was performed.
# The percentage of apoptotic cells was determined using the annexin V assay. The data points represent the averages of three experiments; bars, +−.SE. E. DLD-1 and F. HT-29 cells were transduced with an adenovirus containing the IκB super-repressor construct. After 3 days, the cells were transiently suspended and allowed to readhere in the presence of subapoptotic concentrations of BAY 11-7085 or DMSO (vehicle) for 8 hours. The data are expressed as fractions of cells surviving compared with the controls (no adenovirus) and were quantitatively determined by staining the remaining adherent cells with crystal violet.
# Single cell suspensions were plated at 100,000 cells per well in 24-well plates in media containing DMSO, BAY 11-7082, BAY 11-7085, or MG-132 for 8-24 hours in an incubator. Alternatively, DMSO, BAY 11-7082, BAY 11-7085, or MG-132 were added to cells that were confluent and adherent for several days. The nonadherent cells were aspirated off with the media and spun for 3 minutes at 2,000 rpm in 15 mL polypropylene tubes. The adherent cells were washed twice with PBS, dispersed in trypsin, and spun down for 3 minutes at 2,000 rpm in 15 mL polypropylene tubes. The nonadherent and adherent cells were resuspended in 1× binding buffer (10 mM HEPES/NaOH, pH 7.4, 140 mM NaCl, and 2.5 mM CaCl2) to a final concentration of 10^6 cells/mL. 100 μL of the cell solution were transferred to a 5 mL culture tube and incubated with 5 μL of annexin V-FITC-conjugated monoclonal antibody (Pharmingen) and 10 μl, of propidium iodide (from a 50 μg/mL stock solution made in PBS) in the dark at 25° C. for 15 minutes. 400 μL of binding buffer was added to each tube and the cells were analyzed by flow cytometry immediately. The percent of apoptosis was determined as the percent of annexin V-positive, propidium iodide-negative cells of the total cells counted.
# Various concentrations of BAY 11-7085 were added to HT-29 cells that were transiently suspended in trypsin-PBS for approximately 15 minutes before replating. The transiently suspended cells were quickly allowed to readhere in order to prevent anoikis. Alternatively, BAY 11-7085 was added to adherent HT-29 cell monolayers.
# [2] = tested on: Su.86 pancreatic cancer cells; experiment: Athymic mouse model of peritoneal carcinomatosis (IP cancer cells, bioluminescent imaging, 9 days); type: in vivo; details: Su.86 IP; BAY 11-7085 5 mg/kg IP 24 h before, then every 3 days for 9 days
# Procedure: (§1) Twenty-four hours later, […] Su.86 or BxPC-3 pancreatic cancer cells, that were stably transfected with a firefly luciferase construct, were delivered IP. […] At the end of treatment, the mice received luciferin IP and sacrificed. The abdominal cavities were exposed and the mice placed immediately in a bioluminescent imager and photographed. The individual intraabdominal peritoneal tumors were counted. The subset of tumor implants limited to the liver surface was determined as well. […] The proportion of mice with peritoneal and/or hepatic tumor implants were compared using a test of proportions (*p<0.05).
# [3] = tested on: BxPc-3 pancreatic cancer cells; experiment: as above; type: in vivo; details: BxPc-3 IP; BAY 11-7085 5 mg/kg IP 24 h before, then every 3 days for 9 days
# Procedure: as §1
# [4] = tested on: pancreatic (Su.86, PL-45) and colon cancer cells (HT-29); experiment: Cleaved PARP western blot during readhesion; type: cell-based, human; details: 10-20 μM BAY 11-7085; 8 hours
# Procedure: FIG. 10 is a graph showing that BAY 11-7085 induces apoptosis of pancreatic and colon cancer cells during readhesion. Pancreatic (Su.86, PL-45) and colon cancer cells (HT-29) were transiently suspended and allowed to readhere in the presence or absence of vehicle or various concentrations of BAY 11-7085 for 8 hours. The floating and adherent cells were collected and lysed. Western blots for cleaved PARP were performed to determine if the cells were undergoing apoptosis (FIG. 10A). Transiently suspended pancreatic cancer cells ([…] per well) were allowed to readhere in the presence of vehicle or various concentrations of BAY 11-7085 for 24 hours. Nonadherent apoptotic cells were washed away and the remaining adherent cells stained with crystal violet and then dried. The crystal violet stained cells were lysed and the absorbance read in a plate spectrophotometer (FIG. 10B). […] The results are expressed as a percentage of cells surviving compared with vehicle alone.
# BxPc-3, PL-45, Su.86.86 and HT-29 cells were transiently suspended and treated in vitro with varying concentrations of BAY 11-7085 or DMSO for four to eight hours. […] The degree of apoptosis was determined by western blotting for cleaved PARP.
# NF-κB = NF-κB electrophoretic mobility shift assay (EMSA), nuclear lysates of treated HT-29 cells; type: cell-based, human; details: 10 μM, 3 and 6 hour incubations
# JNK/SAPK and p38 = details: Pierce et al., J Biol Chem 272:21096-103, 1997; cited from earlier work
# JNK = JNK activity (phosphorylation of c-JUN) in colon and pancreatic cancer cell lines; type: cell-based, human
compound,measurement,setting,value
"CC(C)(C)c1ccc(S(=O)(=O)/C=C/C#N)cc1 [BAY 11-7085, (2E)-3-[4-(tertiarybutylphenyl)sulfonyl]-2-propenenitrile]",BAY 11-7085-induced apoptosis during readhesion,"[1]; HT-29 transiently suspended, treated and allowed to readhere, 8 hours",showed the same propensity for BAY 11-7085-induced apoptosis
same,apoptosis of transiently suspended HT-29 cells,"[1]; all concentrations tested (10-100 μM), cells suspended in trypsin-PBS then replated",caused a significant increase in apoptosis
same,% with Liver Implants,[2],0%
same,% with Peritoneal Implants,[2],33%
same,% with Liver Implants,[3],29%
same,% with Peritoneal Implants,[3],71%
same,apoptosis (cleaved PARP levels) during cell readhesion,[4],increased apoptosis (cleaved PARP levels)
same,inhibition of NF-κB activity (EMSA),NF-κB,more profound inhibition of NF-κB activity
same,activation of JNK/SAPK and p38,JNK/SAPK and p38,activate JNK/SAPK and p38
same,JNK activity (phosphorylation of c-JUN),JNK,readily induced JNK activity
